Entries after “also recorded” stand apart in the source; their conditions may differ.

Assay [1] relates to Brain-Specific Kinases (BRSKs). Kind of assay: Kinase assays, BRSKs. It is filed as biochemical. The following applies: in vitro.
Protocol: FLAG-CRTC3 was immunoprecipitated using anti-FLAG M2 agarose, washed in kinase buffer (50 mM Tris/HCl pH 7.4, 10 mM Mg acetate, 0.1 mM EGTA, 2 mM DTT) and reactions initiated by adding 4 U/ml recombinant kinase with 0.1 mM ATP (specific activity 3000 cpm/pmol). Phosphorylation of CRTC3 was monitored by autoradiography as well as immunoblotting using phosphospecific antibodies raised against Ser162, Ser329 and Ser370.
For assay [2], the system named is TLR-stimulated macrophages. The assay can be described thus: qPCR of CREB-dependent gene mRNA in TLR-stimulated macrophages. It is filed as cell-based, mouse. How it is done:
Bone-marrow derived macrophages were differentiated for 7 days in DMEM supplemented with 5 ng/ml recombinant M-CSF (R&D systems), 2 mM glutamine, 10% foetal calf serum, penicillin and streptomycin. […]
mRNA was extracted from macrophages using the RNeasy Micro Kit following the manufacturers' instructions (Qiagen). cDNA was generated from 1 μg of total RNA using the iScript cDNA synthesis kit and quantified by qPCR using the SsoFast EvaGreen Supermix on a CFX96 real time system (Bio-Rad Laboratories). The relative expression of each gene was calculated from Ct values using the Pfaffl method^30 and was normalized against the mRNA levels of 18S RNA. The following primers were used: IL-10-F, […]; IL-10-R, […]; c-Fos-F, […]; c-Fos-R, […]; nurr1-F, […]; nurr1-R, […]; nurr77-F, […]; nurr77-R, […]; 18S-F, […]; 18S-R, […]; IL-1ra-F, […]; IL-1ra-R, […]; SPHK1-F, […]; SPHK1-R, […]; LIGHT-F, […]; LIGHT-R, […]; ArgI-F, […]; ArgI-R, […]; IFN-F, […]; IFNγ-R, […].
[…]. Biochem J 434:93-104) using the indicated antibodies. RNA was extracted using the RNeasy Micro Kit (Qiagen). cDNA was generated using the iScript cDNA synthesis kit and quantified by qPCR using the SsoFast EvaGreen Supermix (Bio-Rad Laboratories). The relative expression of each gene was calculated from Ct values using the Pfaffl method (Pfaffl M W (2001) A new mathematical model for relative quantification in real-time RT-PCR. Nucleic Acids Res 29:e45) and was normalized against the mRNA levels of 18S or GAPDH RNA. Fold-induction for each gene was reported relative to untreated control cells, which was set to 1. The concentrations of TNFα, IL-6, IL-10, IL-12p40, and RANTES in culture supernatants were measured using the Bio-Plex Pro Assay system from Bio-Rad. Further details in supplementary information.
mRNA was extracted from cells using the RNeasy Micro Kit following the manufacturers' instructions (Qiagen). cDNA was generated from 1 μg of total RNA using the iScript cDNA synthesis kit and quantified by qPCR using the SsoFast EvaGreen Supermix on a CFX96 real time system (Bio-Rad Laboratories). The relative expression of each gene was calculated from Ct values using the Pfaffl method (5) and was normalized against the mRNA levels of 18S RNA or GAPDH. Results are reported relative to untreated control cells, which was set to 1. The following primers were used: […]
Background: Real-time PCR tracks product formation cycle by cycle.

The subject of a further assay is CRTC3. The assay can be described thus: CRTC3 phosphorylation in macrophages (phosphoproteomics, immunoblotting). It is filed as cell-based. Here is the method:
RAW264.7 cells were labelled using the Stable Isotope Labelling of Amino Acids in Cell Culture (SILAC) method. […] The cells were lysed in detergent-free lysis buffer (8 M urea, 50 mM Tris pH8.2, 10 mM glycerol 2-phosphate, 50 mM sodium fluoride, 5 mM sodium pyrophosphate, 1 mM EDTA, 1 mM sodium orthovanadate, 10 mM DTT, 1 mM PMSF, 1 μg/ml aprotinin, 1 μg/ml leupeptin), the extract clarified by centrifugation and protein concentration determined using the Bradford method. 2 mg of cell extract protein from each experimental condition were mixed in a 1:1:1 ratio and then alkylated with 50 mM iodoacetamide for 30 min. […] Phosphopeptides from these samples were enriched using a standard Fe^3+-IMAC enrichment protocol^32 and measured by LC-MS/MS. […] The data was analysed using MaxQUANT^33.
Cells were rinsed in ice-cold PBS and extracted in lysis buffer (50 mM Tris/HCl pH 7.4, 1 mM EDTA, 1 mM EGTA, 50 mM NaF, 5 mM sodium pyrophosphate, 10 mM sodium β-glycerol 1-phosphate, 1 mM dithiothreitol, 1 mM sodium orthovanadate, 0.27 M sucrose, 1% (v/v) Triton X-100, 1 μg/ml aprotinin, 1 μg/ml leupeptin and 1 mM phenylmethylsulphonyl fluoride). Cell extracts were clarified by centrifugation at 14000×g for 10 min at 4° C. and protein concentrations were determined using the Bradford assay. […]
(In general: In western blotting, separated proteins are transferred to a membrane and probed.)

Setting [3] is: LPS-stimulated macrophages with MRT67307.

`O=C(NCCCNc1nc(Nc2cccc(CN3CCOCC3)c2)ncc1C1CC1)C1CCC1` [MRT67307]: the “inhibition of BRSKs” value in assay [1] is on record as “did not inhibit”. In addition, in assay [2] (setting [3]), the “time at which IL-10 mRNA levels reach a maximum” value stood at 1 h and the “time at which IL-10 mRNA returns to near basal levels” value was 4 h. Moreover, the “mRNA of CREB-dependent genes c-fos, nurr1 and nurr77” value in assay [2] (TLR-stimulated macrophages) is listed as “increase”. Moreover, the “IL-10 mRNA” value in assay [2] (TLR/LPS-stimulated macrophages) is “dramatically increased”. The “phosphorylation of CRTC3” value in the assay on CRTC3 (2 μM MRT67307, Pam3CSK4-stimulated macrophages, phosphoproteomic study) was “robustly dephosphorylated at Ser62, Ser329 and Ser370; also recorded: blocked”. Further, in the assay with CRTC3 (LPS stimulation), the “phosphorylation of CRTC3 at Ser370” value is recorded as “blocked”.
